The numbers were not newly measured in patent EP4545067A1, “HIGHY DOSED DERMALLY […] PREPARATION HAVING AN INCREASED DRUGLOAD IN THE TARGET CO[…] IMPROVED TREATMENT OF ECTOPARASITE INFESTATION” (Infectopharm Arzneimittel und Consilium GmbH, priority 2023, dated 2025), which cites them from elsewhere.

The conditions of the data set: bei 20 °C.

Turning to `CC1(C)C(C=C(Cl)Cl)C1C(=O)OCc1cccc(Oc2ccccc2)c1` (stereo not shown) [Permethrin, 3-(2,2-Dichlorethenyl)-2,2-dimethylcyclopropancarboxylsäure-(3-phenoxyphenyl)methylester], the “Löslichkeit in Wasser” value is recorded as 0,2 mg·l^-1.
